One data set has as its system collagenase. Nature of the data set: Collagenase production inhibition test in human fibroblasts. The data set is classed as cell-based. The settings on record: 10^−4 M tocopherol or EGCG, 24 hours, untreated group = 100. The method, then:
The activity of inhibiting collagenase production of the soybean leaf extracts of stages VC, V2, V4, R2, R4, R6 and R7 prepared in Example 1 was compared with those of tocopherol (Comparative Example 1) and EGCG (Comparative Example 2). Tocopherol and EGCG are known to prevent skin aging by regenerating epidermal cells.
Human fibroblasts (Cascade Biologics, Portland, Oreg., USA) were added to a 96-well microtiter plate containing Dulbecco's modified Eagle's medium (DMEM) supplemented with 2.5 wt % fetal bovine serum, at 5,000 cells/well, and cultured to about 90% confluence. Then, after culturing in serum-free DMEM for 24 hours and treating with 100 μg/mL of each of the soybean leaf extracts of stages VC, V2, V4, R2, R4, R6 and R7 prepared in Example 1 or 10^−4 M tocopherol or EGCG (Sigma Aldrich) for 24 hours, the cell culture was harvested.
The production of collagenase in the cell culture harvested was measured using a collagenase measuring system (Amersham Pharmacia, USA). […]
A absorbance of a cell culture obtained without treating with the composition was used as a control group. That is to say, the expression level of collagenase in the group treated with the test substance was calculated relative to that of the untreated group as 100.
Collagenase expression level (%)=Absorbance of group treated with test substance/Absorbance of control group×100 [Equation 1]

The nature of data set [1]: Irritation test (pricking, flushing) on the face of 15 panels sensitive to irritation. The data set is classed as in vivo. The method, then: Retinol as a known antiaging substance and the autumn soybean leaf (stage R7) extract as an active ingredient of the present disclosure were tested comparatively for irritation by 15 panels who are sensitive to irritation such as pricking, flushing, etc.
The panels were asked to apply 0.5 mL of retinol (purchased from Sigma) or the autumn soybean leaf extract obtained in Example 1 (1 mg/mL) randomly on each face and score between 0 and 3.0 points with 0.1-point intervals.
1.1-2.0: Moderate irritation.
2.1-3.0: Severe irritation.

A short description of data set [2]: Antioxidative activity test based on DPPH reduction. The data set is classed as biochemical. The settings on record: sample concentration at which absorbance at 540 nm decreased by 50%; 100 μM DPPH, 37° C., 30 minutes. On the technique in general: DPPH is a stable violet radical that fades when it is reduced.
Protocol: In order to investigate the antioxidative activity of the soybean leaf extracts of stages VC, V2, V4, R2, R4, R6 and R7 prepared in Example 1, the effect of inhibiting the oxidation of the free radical 1,1-diphenyl-2-picrylhydrazyl (DPPH) was compared by measuring the change in absorbance caused by reduction of DPPH.
190 μL of a 100 μM (in ethanol) DPPH solution and each of the soybean leaf extracts of stages VC, V2, V4, R2, R4, R6 and R7 obtained in Example 1 and 10,000 ppm Trolox (positive control), a synthetic antioxidant are prepared at a concentration of 10,000 ppm, diluted to a final concentration of 500 ppm, 250 ppm, 125 ppm, 62.5 ppm, 31.25 ppm or 15.63 ppm. 10 μL of each of them were mixed to prepare a reaction solution, and absorbance was measured at 540 nm after incubation at 37° C. for 30 minutes. IC50 means the sample concentration when the absorbance was decreased by 50% due to the added sample.
Setting [3] is: score 0 to 3.0 points, 0.5 mL applied on face, extract 1 mg/mL, 15 panels.

As for `O=C(O[C@@H]1Cc2c(O)cc(O)cc2O[C@@H]1c1cc(O)c(O)c(O)c1)c1cc(O)c(O)c(O)c1` [EGCG (Comparative Example 2), EGCG], in the data set on collagenase, the “Collagenase expression level (%)” value was determined as 61%. `CC1=C(/C=C/C(C)=C/C=C/C(C)=C/CO)C(C)(C)CCC1` [Retinol]: the “Irritation such as pricking and flushing (in words)” value in data set [1] (grade by the scoring standard, 0.5 mL applied on face) is reported as “slight irritation”. Besides, the “Mean (irritation score)” value in data set [1] (mean of pricking and flushing scores, 0 to 3.0 points) turned out to be 0.65. In addition, in data set [1] (setting [3]), the “Flushing (irritation score)” value was found to be 0.42 and the “Pricking (irritation score)” value came out at 0.87. As for `Cc1c(C)c2c(c(C)c1O)CC[C@@](C)(CCC[C@H](C)CCC[C@H](C)CCCC(C)C)O2` [Tocopherol (Comparative Example 1), tocopherol], the “Collagenase expression level (%)” value in the data set on collagenase was determined as 74%. As to `Cc1c(C)c2c(c(C)c1O)CCC(C)(C(=O)O)O2` (stereo not shown) [Trolox (positive control), Trolox], in data set [2], the “IC50 (ppm)” value is 38 ppm.
